Legend:
[1] = tested on: Mouse collagen-induced arthritis (CIA); test: Mouse collagen-induced arthritis (CIA) model for rheumatoid arthritis; assay type: in vivo, mouse (DBA/1LacJ)
Description: A model for human rheumatoid arthritis has been developed wherein mice are immunized with bovine type II collagen. Anderson et al., J. Immunol. 1991 147, 1189-1193, citing Trentham et al., J. Exp. Med 1977, 146, 857. Swelling and inflammation of the joints follows in approximately 3 weeks, with joint distortion and ankylosis typical of rheumatoid arthritis. This model has been used to study the effects of the antisense oligonucleotide 17044, targeted to mouse integrin α4, on arthritis in mice.
DBA/1LacJ mice were obtained from Jackson Laboratory, Bar Harbor, Me. Female mice aged 6 to 8 weeks were used and assigned to groups, ten mice per group. On day 0 mice were immunized at the base of the tail with 100 ug of bovine type II collagen which was emulsified in Complete Freund's Adjuvant (CFA). On day 7, a second booster dose of collagen was administered by the same route. On day 14 the mice were injected subcutaneously with 100 ug of lipopolysaccharide (LPS). Weights were recorded weekly. Mice were inspected daily for the onset of CIA, which is characterized by erythema and edema. Upon the onset of the disease, paw widths and rear ankle widths of affected and unaffected joints were measured three times a week using a constant tension caliper. In addition, limbs were clinically evaluated and graded 0-4, where 0=normal; 1=one digit swollen; 2=inflammation present in more than one digit; 3=joint distortion with or without inflammation; and 4=ankylosis, detected by joint manipulation. The progression of all measurements was recorded to day 50. At the end of the observation period for each mouse, all paws were removed and examined histologically.
The oligonucleotide, the positive control drug (cyclophosphamide, 5 mg/kg), and the vehicle were administered daily to each mouse intraperitoneally (IP) starting on day -3 and continuing for the duration of the study. Each animal received 10 mg/kg as a bolus daily dose.
In a preliminary study, a single 10 mg/kg daily dose of […] was administered from the time of disease induction to the conclusion of the study 50 days later. Arthritis incidence was reduced from 70 to 30% in the ISIS 17044-treated group.

[2] = tested on: leukocyte trafficking into the central nervous system of EAE mice; test: Reduction of leukocyte trafficking into the central nervous system of EAE mice (immunostaining of sections); assay type: in vivo, mouse (CSJLF1)
Procedure: The pieces were embedded in O.C.T. tissue freezing medium (Ted Pella Inc., Redding, Calif.) on dry ice and methylbutane. Four-micron frozen sections were cut and air dried overnight. The sections were fixed for three minutes in ice-cold acetone and then placed on a Dako Autostainer (Dako Corporation, Carpinteria, Calif.) and treated in the following steps: 5 minutes in 0.03% H2 O2, 5 minutes in 5% donkey serum diluted in PBS, 45 minutes in appropriately diluted primary antibody, 30 minutes in horseradish peroxidase-labeled donkey anti-rat secondary antibody (Jackson Laboratory, Bar Harbor, Me.). Sections were rinsed between treatments with PBS. All the antibodies used were rat anti-mouse from PharMingen (San Diego, Calif.), except BM-8, which was from Bachem Bioscience Inc. (King of Prussia, Pa.). The immunostaining was developed with DAB (Dako Corporation) and counterstained with hematoxylin.

[3] = tested on: human integrin α4; test: Integrin α4 protein expression in A375 cells after electroporation of oligonucleotide (flow cytometry); assay type: cell-based
Procedure: A375 cells were treated with ISIS 107245, 107248, 107252, 107255 and 107259 by electroporation at 175 volts, r=1, c=1000, 0.2 ml Opti-MEM, 1×10^6 cells /ml, 2 mm gap electrode using a BTX Electro Cell Manipulator 600 (Genetronics, San Diego Calif.). Oligonucleotide concentrations were 1, 3, 10 and 30 μM. Cells were harvested 24 hours after oligonucleotide treatment and strained with 2 ug/ml CD49d-FITC for flow cytometry as in the previous examples.
ISIS 107248 was compared directly to ISIS 27104 for ability to inhibit integrin α4 expression in A375 melanoma cells. Oligonucleotides were electroporated into cells as in the previous example.

[4] = Table 23, mice with arthritis, 10 mg/kg

## 17044 (CCGCAGCCATGCGCTCTTGG; phosphorothioate, 2'-MOE/deoxy, further chemistry not given here) [compound 17044]
[1]; Table 22, 10 mg/kg daily IP
  # Paws/Mouse (mean number of affected paws at termination): 0.7 ± 0.4
  Mean Day of Onset: 20.3 ± 1.9 days
  Peak Day of Inflamm. (day from onset to time of maximum swelling): 1.6 ± 0.8 days
  Severity (total clinical score/total number of mice in group): 2.1 ± 1.1
[1]; [4]
  Mean # of Paws Involved: 2.3 ± 0.3
  Mean Clinical Score: 7.0 ± 1.0
[1]; preliminary study, single 10 mg/kg daily dose, reduced from 70
  Arthritis incidence: 30%
[2]; 1 mg/kg
  leukocyte trafficking into the spinal cords and brains: reduce leukocyte trafficking into the spinal cords and brains
[2]; EAE experiment 4
  reduction of leukocyte influx into the central nervous system, 1.0 vs 0.1 mg/kg: dose-dependent effect with 1.0 mg/kg of 17044 causing a greater reduction of leukocyte influx into the central nervous system than did 0.1 mg/kg 17044
[2]; one experiment, EAE mice
  CD4+T cells in the central nervous system: virtually eliminated
[2]; preliminary experiments, 1 mg/kg
  leukocyte trafficking as measured by expression of VLA-4, CD4, BM-8 and CD18: significantly reduced

## 107248 (antisense CTGAGTCTGTTTTCCATTCT; chemistry not given here) [compound 107248]
[3]; Table 25, 1 nM as printed, 24 hours
  % Control: 9.1%
[3]; Table 25, 10 nM, 24 hours
  % Control: 23.2%
[3]; Table 25, 30 nM, 24 hours
  % Control: 52.1%
[3]; Table 26, 1 μM
  % Control: 52.1%
  % Inhib.: 47.9%
[3]; Table 26, 3 μM
  % Control: 17.4%
  % Inhib.: 82.6%
[3]; Table 26, 10 μM
  % Control: 7.9%
  % Inhib.: 92.1%
[3]; Table 26, 30 μM
  % Control: 2.9%
  % Inhib.: 97.1%

Source: patent US6258790A, “Antisense modulation of integrin α4 expression” (Isis Pharmaceuticals, Inc., priority 1999, dated 2001)
